One series deals with DX3puroβ6 (αvβ6+) cells. Nature of the series: [18F]-radiolabeled peptide cell binding and internalization, DX3puroβ6 (αvβ6+) cells. It counts as cell-based, human.
Series [1] deals with αvβ6-expressing human tumors. Particulars: mouse, in vivo; cited from earlier work.
The target in another series is T1, αvβ6 integrin (Homo sapiens, UniProt P06756+P18564).
T1 construct: All purified integrins were purchased from R&D Systems (MN, USA); purchased R&D Systems (MN, USA)
Nature of the series: Competitive binding ELISA against biotinylated LAP (BtLAP), αvβ6 integrin. For orientation: An ELISA detects its analyte on a solid surface through an enzyme-linked reagent.

Another series concerns the target T2, αvβ3 integrin (Homo sapiens, UniProt P05106+P06756).
T2 construct: All purified integrins were purchased from R&D Systems (MN, USA); purchased R&D Systems (MN, USA)
In words: Competitive binding ELISA, αvβ3 integrin.

The next series addresses T3, αvβ8 integrin (Homo sapiens, UniProt P06756+P26012).
T3 construct: All purified integrins were purchased from R&D Systems (MN, USA); purchased R&D Systems (MN, USA)
In words: Competitive binding ELISA, αvβ8 integrin.

Series [2] is described as follows: Circular dichroism (CD) spectroscopy. It counts as physicochemical. Particulars: for % Helical Content CD Buffer: 25 mM phosphate + 100 mM NaF; for % Helical Content CD Buffer + 30% TFE: buffer with 30% trifluoroethanol. (In general: Circular dichroism is the unequal absorption of left and right circularly polarised light.)

Read-outs that look alike come from different tables or passages of the source. Where a SMILES comes first, the peptide text is derived from it. The star is where a group is joined. Benzoyl(4-F) = O=C(c1ccc(F)cc1)* Some results are limits rather than exact numbers.

“FB-NAVPNLRGDLQVLAQKVART [A20FMDV2, reference compound]”: the “DX3puroβ6 (αvβ6+)/DX3puro (αvβ6−) selectivity ratio” value in the series on DX3puroβ6 (αvβ6+) cells is 10:1. Also, the “unmetabolized peptide in urine” value in series [1] was “no unmetabolized peptide was detected”.
Take `CC(C)C[C@H](NC(=O)[C@H](Cc1ccc(O)cc1)NC(=O)[C@@H](NC(=O)[C@H](CC(C)C)NC(=O)[C@H](CC(=O)O)NC(=O)CNC(=O)[C@@H](NC(=O)c1ccc(F)cc1)C(C)C)[C@@H](C)O)C(=O)N[C@@H](CCCCN)C(=O)N[C@@H](CCC(N)=O)C(=O)N[C@@H](CCCCN)C(=O)N[C@H](C(=O)N[C@@H](C)C(=O)N[C@@H](CCCNC(=N)N)C(=O)N[C@H](C(N)=O)[C@@H](C)O)C(C)C` [P1Q]: the figures for the IC50 at αvβ6 integrin, on αvβ3 integrin and on αvβ8 integrin were 12 ± 1 nM, > 100000 nM and > 100000 nM, respectively. In addition, the “binding selectivity for αvβ6 over αvβ3 and αvβ8 integrins” value at αvβ6 integrin (ELISA IC50 ratio) was 10,000 :1. The “IC50 αvβ6” value at αvβ6 integrin (competitive ELISA vs BtLAP, mean ± SD, n = 3) was “low nanomolar”. Moreover, in the series with DX3puroβ6 (αvβ6+) cells, the “DX3puroβ6 (αvβ6+)/DX3puro (αvβ6−) selectivity ratio” value was 10.3 ± 1:1. The “% Helical Content CD Buffer” value in series [2] was 1.6%. The “% Helical Content CD Buffer + 30% TFE” value in series [2] is on record as 45.1%. Moreover, the “α-helix formation in CD buffer with TFE” value in series [2] (buffer with added TFE, 30%) is reported as “α-helices were induced”.
Turning to `CC(C)C[C@H](NC(=O)[C@H](CC(=O)O)NC(=O)CNC(=O)[C@@H](N)CCCNC(=N)N)C(=O)N[C@@H](C)C(=O)N[C@@H](CC(=O)O)C(=O)N[C@@H](CC(C)C)C(=O)N[C@@H](CCCNC(=N)N)C(=O)N[C@@H](CCCCNC(=O)c1ccc(F)cc1)C(N)=O` [P3] (H-RGDLADLRK(Benzoyl(4-F))-NH2), the results for the IC50 at αvβ6 integrin, at αvβ3 integrin and at αvβ8 integrin were 420 ± 70 nM, > 100000 nM and 200 ± 20 nM, respectively. Moreover, the “binding to DX3puroβ6 (αvβ6+) cells” value in the series on DX3puroβ6 (αvβ6+) cells (% of total activity, 1 hour, 37° C.) stood at 10.8±1.4%. Further, the “DX3puroβ6 (αvβ6+)/DX3puro (αvβ6−) selectivity ratio” value in the series on DX3puroβ6 (αvβ6+) cells (cell binding, 1 hour) is 1.4±0.2 :1. In series [2], the “% Helical Content CD Buffer” value is 11.6%. Besides, in series [2], the “% Helical Content CD Buffer + 30% TFE” value came out at 7%.
